# Experimental data: patent US20090012152A1, “Use of Tetramic Acid Derivatives for Controlling Insects from the Genus of the Plane Lice (Sternorrhyncha)” (Bayer CropScience Aktiengesellschaft, priority 2005, published 2009)
# Key:
# Format in all cases: in vivo
# Bemisia argentifolii = assay: Example 35: aubergines (F 100) treated against Bemisia argentifolii; details: 7 d after last of three treatments, nymphs on leaves, % a.i.: imidacloprid 0.014, I-9, I-2, I-11 0.0144
# Description: In three replications, plots of a size of 10 m^2 with aubergines of the cultivar “F 100” are treated against Bemisia argentifolii. The application is carried out using a knapsack sprayer operated with pressurized air. Here, the active compounds Example (I-9) (60 SC), Example (I-2) (60 SC) and Example (I-11) (60 SC) and the commercial standard imidacloprid (70 WG) are tested at the stated application rates. Three applications are carried out, at an interval or 7 or 8 days. The application rate is 1000 l of water/ha.
# Evaluation is carried out 7 days after the last treatment by rating the kill of the nymphs on the leaves.
# Dysaphis plantaginea = assay: Example 41: apple trees treated against Dysaphis plantaginea (Henderson and Tilton); details: live animals on shoots, % a.i.: imidacloprid 0.007, I-9 0.0144, I-2 0.0144; for Effect (%) 7 d: 7 d after treatment; for Effect (%) 14 d: 14 d after treatment
# Description: (§1) In three replications, three about 8-year-old apple trees of the cultivar “Golden Delicious” are treated eradicatively against Dysaphis plantaginea and Aphis pomi. The application is carried out using a motor-operated barrow-mounted sprayer. Here, the active compounds Example (I-9) (240 SC) and Example (I-2) (240 SC) in the stated amount are tested against the commercial standard imidacloprid (200 SL), at the stated application rate. The application rate is 1200 l of water/ha.
# (§2) Evaluation is carried out before and also 7 d and 14 d after the treatment by counting the live animals on the shoots. The efficacy is then calculated by calculating the effect on the population in percent according to Henderson and Tilton.
# Aphis pomi [1] = assay: Example 41: apple trees treated against Aphis pomi (Henderson and Tilton); details: live animals on shoots, % a.i.: imidacloprid 0.007, I-9 0.0144, I-2 0.0144; for Effect (%) 7 d: 7 d after treatment; for Effect (%) 14 d: 14 d after treatment
# Description: as §1, §2
# Aphis fabae = assay: Example 51: broad beans treated against Aphis fabae; details: nymphs on leaves, g a.i./ha: Pirimor 250, I-9 36, I-2 36, I-4 42; for Kill (%) 7 d: 7 d after treatment; for Kill (%) 15 d: 15 d after treatment
# Description: In three replications, plots of a size of 10 m^2 with broad beans of the cultivar “Fruhe Weisskeimige” are treated against Aphis fabae. The application is carried out using a knapsack sprayer operated with pressurized air. Here, the active compounds Example (I-9) (240 SC), Example (I-2) (240 SC) and Example (I-4) (240 SC), in a tank mix with 0.2% of rapeseed oil methyl ester (500 EW), and the commercial standard Pirimor (50 WG) are tested at the stated application rates. Application is carried out once. The application rate is 500 l of water/ha.
# Evaluation is carried out 7 and 15 days after the treatment by rating the kill of the nymphs on the leaves.
# Pseudococcus spp. = assay: Example 28: vines treated against Pseudococcus spp.; details: 28 days after last of two treatments, on grapes, imidacloprid drip irrigation 560 g/ha, I-4 0.0168%, I-9 0.0144% spray
# Description: In four replications, three in each case about 12-year-old vines of the cultivar “Auvemat” are treated against Pseudococcus spp. The commercial standard used is an application with imidacloprid at the recommended application rate, by drip irrigation. The active compounds are applied by spraying using a knapsack sprayer operated with pressurized air. Here, the active compounds Example (I-4) (240 SC) and Example (I-9) (240 SC) are applied in a tank mix with 0.1% a.i. of rapeseed oil methyl ester (500 EW), at the stated amount. Two applications are carried out at an interval of 15 days. The application rate is 1776 l of water/ha. Evaluation is carried out 28 days after the last treatment by rating the kill on grapes in percent.
# Aleurodes citri = assay: Example 31: orange tree treated against Aleurodes citri; details: on leaves, g a.i./ha/m crown height: imidacloprid 75, I-4 72; for Kill (%) 7 d: 7 d after treatment; for Kill (%) 14 d: 14 d after treatment; for Kill (%) 21 d: 21 d after treatment
# Description: In four replications, in each case one orange tree of the cultivar “Newhall” is treated against Aleurodes citri. Here, the active compound Example (I-4) (240 SC) is, at the stated application rate, tested against the commercial standard imidacloprid. The active compounds are applied in a tank mix with 0.5% a.i. of Oliocin (700 EW), at an application rate of 1500 l of water/ha. The application is carried out using a motor-operated knapsack sprayer.
# Evaluation is carried out 7, 14 and 21 days after the treatment by rating the kill of the animals on the leaves.
# Aphis pomi [2] = assay: Example 40: apple trees treated against Aphis pomi; details: population on shoots, % a.i.: imidacloprid 0.007, I-9 0.0144, I-4 0.0144; for Kill (%) 14 d: 14 d after treatment; for Kill (%) 21 d: 21 d after treatment
# Description: In three replications, three about 22-year-old apple trees of the cultivar “Golden Delicious” are treated eradicatively against Dysaphis plantaginea and Aphis pomi. The application is carried out using a motor-operated barrow-mounted sprayer. Here, the active compounds Example (I-9) (240 SC) and Example (I-4) (240 SC) in the stated amount are tested against the commercial standard imidacloprid (200 SL), at the stated application rate. The application rate is 1200 l of water/ha.
# Evaluation is carried out 14 d and 21 d after the treatment by rating the kill of the population on the shoots.
# Phorodon humuli = assay: Example 44: hop plants treated against hop aphid; details: on leaves, % a.i.: imidacloprid 0.0053, I-9 0.0036, I-4 0.0084; for Kill (%) 6 d: 6 d after treatment; for Kill (%) 46 d: 46 d after treatment
# Description: In two replications, about 4-year-old hop plants of the cultivar “Spalter” are treated against the hop aphid Phorodon humuli. The application is carried out using a knapsack sprayer operated with pressurized air. Here, the active compounds Example (I-9) (240 SC) and Example (I-4) (240 SC), in a tank mix with 0.1% a.i. of rapeseed oil methyl ester (500 EW), and the standard imidacloprid are applied at the stated application rates. The application rate is 1200 l of water/ha.
# The first evaluation is carried out 6 days and the last evaluation 46 days after the treatment by rating the kill of the animals on the leaves.
# Toxoptera citricida = assay: Example 45: orange tree treated against Toxoptera citricida; details: on leaves, % a.i.: imidacloprid 0.0125, I-9 0.0144, I-4 0.0144; for Kill (%) 6 d: 6 d after treatment; for Kill (%) 20 d: 20 d after treatment
# Description: In three replications, in each case one about 8-year-old orange tree of the cultivar “Navel” is treated against Toxoptera citricida. Here, the active compounds Example (I-9) (240 SC) and Example (I-4) (240 SC), in a tank mix with 0.1% a.i. of Marlipal, are tested against the commercial standard imidacloprid (350 SC), at the stated application rates. The application is carried out using a motor-operated knapsack sprayer, the application rate being 6.7 l of water/plant.
# Evaluation is carried out 6 and 20 days after the treatment by rating the kill of the animals on the leaves.
SMILES,Kill (%) 7 d (Bemisia argentifolii),Effect (%) 7 d (Dysaphis plantaginea),Effect (%) 14 d (Dysaphis plantaginea),Effect (%) 7 d (Aphis pomi [1]),Effect (%) 14 d (Aphis pomi [1]),Kill (%) 7 d (Aphis fabae),Kill (%) 15 d (Aphis fabae),Kill (%) (Pseudococcus spp.),Kill (%) 7 d (Aleurodes citri),Kill (%) 14 d (Aleurodes citri),Kill (%) 21 d (Aleurodes citri),Kill (%) 14 d (Aphis pomi [2]),Kill (%) 21 d (Aphis pomi [2]),Kill (%) 6 d (Phorodon humuli),Kill (%) 46 d (Phorodon humuli),Kill (%) 6 d (Toxoptera citricida),Kill (%) 20 d (Toxoptera citricida)
CCOC(=O)OC1=C(c2cc(C)ccc2Br)C(=O)NC12CCC(OC)CC2 (stereo not shown) [Example (I-2)],100%,92.3%,99.2%,99.1%,97.1%,98.6%,100%,,,,,,,,,,
CCOC(=O)OC1=C(c2cc(C)ccc2C)C(=O)NC12CCC(OC)CC2 (stereo not shown) [Example (I-4)],,,,,,100%,100%,99%,90.9%,99.5%,99.9%,96.9%,98.8%,95%,98.7%,97%,97%
"O=[N+]([O-])NC1=NCCN1Cc1ccc(Cl)nc1 [imidacloprid, reference compound]",100%,99.6%,99.5%,99%,83.5%,,,100%,98.4%,99.6%,99.4%,93.6%,92.5%,99%,97.6%,99%,94%
